Data published in patent US20210230123A1, “INHIBITORS OF ALPHA-AMINO-BETA-CARBOXYMUCONIC ACID SEMIALDEHYDE DECARBOXYLASE” (TES Pharma S.r.l., priority 2016, published 2021).

Target: T1, hACMSD (Homo sapiens, UniProt Q8TDX5)
T1 construct: made in house; host or cells: Pichia pastoris
Experiment: Determination of ACMSD1 inhibition (spectrophotometrical in vitro assay)
Format: biochemical
Conditions: HAA concentration of 10 μM, 25° C.
Description: The activity of compounds as inhibitors of ACMSD1 is determined in a spectrophotometrical in vitro assay. The pre-assay mixture is incubated and a compound of Formula (I), Formula (Ia), Formula (Ib), Formula (Ic), Formula (Id), Formula (Ie), Formula (If), Formula (Ig), Formula (Ih), Formula (Ii), Formula (Ij), Formula (II), Formula (IIa), Formula (IIb), Formula (IIc), Formula (IId), Formula (IIe), Formula (IIf), Formula (IIg), Formula (IIh), Formula (IIi), Formula (IIj), Formula (IIk), and Formula (IIl), or a pharmaceutically acceptable salt thereof, and ACMSD1 solution is then added. The effect of ACMS concentration on the enzyme activity is investigated by varying 3-hydroxyanthranilic acid (30H-HA) concentration in the pre-assay mixture. Kinetic parameters are calculated from the initial velocity data using a Lineweaver-Burk plot.
The inhibition activity of ACMSD1 of compounds disclosed herein was determined by measuring the conversion of 30H-Anthranilic Acid into product (i.e., ACMS) in a spectrophotometrical in vitro assay.
The pre-assay mixture consisting of 3-hydroxyanthranilic acid (30H-HA), 3-hydroxyanthranilic acid, 3,4-diOxygenase (HAO), and a dialyzed crude extract of E. coli BL21 (DE3) cells expressing the recombinant enzyme, was incubated at 25° C. with monitoring of the increase in absorbance at 360 nm due to the formation of ACMS from 30H-HA. After the reaction was completed within 2 mins, an aliquot of ACMSD1 solution (prepared and purified from Pichia Pastoris overexpressing the recombinant enzyme) was added, and the decrease in absorbance at 360 nm was followed at 15 second intervals. The effect of ACMS concentration on the enzyme activity was investigated by varying 30H-HA concentration from 2 to 20 µM. Kinetic parameters were calculated from the initial velocity data by using the Lineweaver-Burk plot.
The rate of the decrease in absorbance caused by ACMSD1 was calculated by subtracting that of the control reaction mixture without ACMSD from that described above. One unit of ACMSD activity was indicated as the amount of enzyme that converts 1 mmol of ACMS per minute at 25° C. The absence or a reduction of ACMSD1 activity (e.g., by using ACMSD inhibitors) results in a slow ACMS-spontaneous degradation (i.e., cyclization to form quinolic acid).
The enzymatic activity was determined at a HAA concentration of 10 μM in the presence of the compounds in Table 1 below. The compounds were tested at the concentration of about […] and 10 μM and the IC50 was calculated for compounds showing inhibitory activity higher than 500.

T1 sequence (Q8TDX5 whole entry): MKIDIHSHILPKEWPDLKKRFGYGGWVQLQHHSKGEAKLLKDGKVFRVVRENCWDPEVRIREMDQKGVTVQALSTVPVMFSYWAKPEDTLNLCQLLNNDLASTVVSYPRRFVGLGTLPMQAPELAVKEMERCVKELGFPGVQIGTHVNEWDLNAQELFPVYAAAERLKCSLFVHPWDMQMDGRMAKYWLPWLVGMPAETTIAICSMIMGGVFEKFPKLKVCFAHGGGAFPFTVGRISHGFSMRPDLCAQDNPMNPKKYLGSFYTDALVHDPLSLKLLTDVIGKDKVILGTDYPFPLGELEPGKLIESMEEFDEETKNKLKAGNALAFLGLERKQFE

Compound	IC50
COc1cccc(/C=C/c2[nH]c(=O)[nH]c(=O)c2C#N)c1OCC(=O)O [I-2, (E)-2-(2-(2-(5-cyano-2,6-dioxo-1,2,3,6-tetrahydropyrimidin-4-yl)vinyl)-6-methoxyphenoxy)acetic acid]	100 to 1000 nM
N#Cc1c(/C=C/c2cccc(OCC(=O)O)c2)[nH]c(=O)[nH]c1=O [I-3, (E)-2-(3-(2-(5-cyano-2,6-dioxo-1,2,3,6-tetrahydropyrimidin-4-yl)vinyl)phenoxy)acetic acid]	1000 to 2000 nM
N#Cc1c(/C=C/c2ccccc2-c2cc(F)c(O)c(F)c2)[nH]c(=O)[nH]c1=O [I-4, (E)-6-(2-(3′,5′-difluoro-4′-hydroxy-[1,1′-biphenyl]-2-yl)vinyl)-2,4-dioxo-1,2,3,4-tetrahydropyrimidine-5-carbonitrile]	100 to 1000 nM
N#Cc1c(/C=C/c2ccccc2OCC(=O)O)[nH]c(=S)[nH]c1=O [I-6, (E)-2-(2-(2-(5-cyano-6-oxo-2-thioxo-1,2,3,6-tetrahydropyrimidin-4-yl)vinyl)phenoxy)acetic acid]	100 to 1000 nM
COc1cccc(/C=C/c2[nH]c(=S)[nH]c(=O)c2C#N)c1OC(C)(C)C(=O)O [I-8, (E)-2-(2-(2-(5-cyano-6-oxo-2-thioxo-1,2,3,6-tetrahydropyrimidin-4-yl)vinyl)-6-methoxyphenoxy)-2-methylpropanoic acid]	100 to 1000 nM
COc1cccc(/C=C/c2[nH]c(=S)[nH]c(=O)c2C#N)c1OC(C)C(=O)O (stereo not shown) [I-9, (E)-2-(2-(2-(5-cyano-6-oxo-2-thioxo-1,2,3,6-tetrahydropyrimidin-4-yl)vinyl)-6-methoxyphenoxy)propanoic acid]	100 to 1000 nM
COc1cccc(/C=C/c2[nH]c(=S)[nH]c(=O)c2C#N)c1 [I-10, (E)-6-(3-methoxystyryl)-4-oxo-2-thioxo-1,2,3,4-tetrahydropyrimidine-5-carbonitrile]	100 to 1000 nM
COc1cccc(/C=C/c2nc(SC)[nH]c(=O)c2C#N)c1OCC(=O)O [I-15, (E)-2-(2-(2-(5-cyano-2-(methylthio)-6-oxo-1,6-dihydropyrimidin-4-yl)vinyl)-6-methoxyphenoxy)acetic acid]	100 to 1000 nM
N#Cc1c(-c2cccc(-c3cccc(C(=O)O)c3)c2)[nH]c(=S)[nH]c1=O [I-16, 3′-(5-cyano-6-oxo-2-thioxo-1,2,3,6-tetrahydropyrimidin-4-yl)-[1,1′-biphenyl]-3-carboxylic acid]	100 to 1000 nM
CCOc1cc(/C=C/c2[nH]c(=O)[nH]c(=O)c2[N+](=O)[O-])ccc1OCC(=O)O [I-17, (E)-2-(2-ethoxy-4-(2-(5-nitro-2,6-dioxo-1,2,3,6-tetrahydropyrimidin-4-yl)vinyl)henoxy)acetic acid]	1000 to 2000 nM
